{"source": "patent US20020002171A1", "about": "“Materials and methods for killing nematodes and nematode eggs” (priority 2000, published 2002)", "key": {"C. elegans": {"tested_on": "C. elegans", "assay": "C. elegans nematode activity assay, 2-fold dilutions from 140 μM, visual evaluation at Day 4 (Example 3)", "format": "in vivo, Caenorhabditis elegans", "description": "The eggs were allowed to hatch, and the L1 larvae collected. See The Nematode Caenorhabditis elegans (1988) Cold Spring Harbor Laboratory Press. Using a Matrix Programmable Pipette, the L1s were distributed into 96-well tissue culture plates, 20 L1 in 50 μl NGM per well. Antibiotic/Antimyoticwas added to each well, and 1% by weight E. coli strain HB101. The subject anthelmintic compounds were stored at 5 mM in 100% DMSO. 0.7 μl of compounds 1-31 were added to the left-most column of wells to yield a final concentration of 70 μM in 1.4% DMSO, with 1.4% DMSO only as the control. The compounds were then subjected to 5 more 3-fold dilutions from left to right to yield 6 column concentrations of 70 μM, 23.3 μM, 7.8 μM, 2.6 μM, 0.9 μM, and 0.3 μM. Plates were stored in air-tight Rubbermaid plastic boxes at 20° C. The nematodes had cleared all control wells by day 4, and nematode viability was scored by visual examination under a 100× dissecting microsope on day 5. A visual viability scoring system was used as follows:\nThe C. elegans nematode activity assay for anthelmintic compounds 32-46 was similar to that described in Example 2 above, except for the following noted differences. The compound concentrations were adjusted to 140 μM and subjected to 2-fold dilutions to yield 140 μM, 70 μM, 35 μM, 17.5 μM, 8.8 μM, 4.4 μM, 2.2 μM, and 1.09 μM."}, "Meloidogyne incognita": {"tested_on": "Meloidogyne incognita", "settings": "cited from earlier work"}}}
{"smiles": "NCc1ccc(-c2ccccc2)cc1", "note": "[AKC-138]", "values": [{"measurement": "visual evaluation of viability", "setting": "C. elegans; 8.8 μM", "result": "B (low broodsize (25-100 progeny))"}]}
{"smiles": "CCCCCCCCOc1ccc2nc(CCSC)[nH]c2c1", "note": "[AKC-144]", "values": [{"measurement": "visual evaluation of viability", "setting": "C. elegans; 1.09 μM", "result": "OK (no effect (˜1000+ progeny))"}, {"measurement": "visual evaluation of viability", "setting": "C. elegans; 2.2 μM", "result": "OK (no effect (˜1000+ progeny))"}, {"measurement": "visual evaluation of viability", "setting": "C. elegans; 4.4 μM", "result": "OK (no effect (˜1000+ progeny))"}, {"measurement": "visual evaluation of viability", "setting": "C. elegans; 8.8 μM", "result": "OK (no effect (˜1000+ progeny))"}, {"measurement": "visual evaluation of viability", "setting": "C. elegans; 17.5 μM", "result": "˜B (moderate broodsize (100-250 progeny))"}, {"measurement": "visual evaluation of viability", "setting": "C. elegans; 35 μM", "result": "B (low broodsize (25-100 progeny))"}, {"measurement": "visual evaluation of viability", "setting": "C. elegans; 70 μM", "result": "L4/AD/B"}]}
{"smiles": "CC[C@H](C)[C@H]1O[C@]2(CC(O)[C@@H]1C)C[C@@H]1C[C@@H](C/C=C(\\C)[C@@H](OC3CC(OC)C(OC4CC(OC)C(O)C(C)O4)C(C)O3)[C@@H](C)/C=C/C=C3\\CO[C@@H]4[C@H](O)C(C)=C[C@@H](C(=O)O1)[C@]34O)O2", "note": "(stereo partly drawn) [Avermectin B2a]", "values": [{"measurement": "activity against the root-knot nematode", "setting": "Meloidogyne incognita", "result": "active"}]}
